Data set [1] is described as follows: SN-38 PK profile and tolerability in metastatic colorectal cancer patients treated with SCO-101 and FOLFIRI (Example 2). The data set is classed as in vivo, human. The method, then:
Patients with metastatic colorectal cancer were included in a study and treated with a combination of SCO-101 and FOLFIRI (combination of irinotecan, 5-FU and leucovorin) in 14 day treatment cycles. Patients received varying doses of Irinotecan between 50% and 80% of the recommended dose of Irinotecan (180 mg/m^2) according to their individual tolerability, which is standard practise. On days 1, 2, 3, 4, 5 and 6 in each treatment cycle, patients received one fixed daily dose of 150 mg SCO-101 taken in the morning at least 30 minutes before ingestion of food. On day 5 to 7, patients received FOLFIRI as specified for Colorectal cancer combination regimen 2.
Blood plasma samples were analysed for concentrations of SCO-101, irinotecan and SN-38 using Liquid Chromatography with Tandem Mass Spectrometric Detection (LC-MS/MS) bioanalytical method calibrated and validated in the rant 300 to 90.000 ng/ml. The method and system, including validation were according to industry standard. Data were analysed using commercially available software such as Win-Non-Lin (available from Certara inc.)
A trial was setup to address the safety, tolerability, and efficacy of SCO-101 given orally for 6 days followed by FOLFIRI at varying doses from day 5 to 7, in a biweekly schedule, in patients with metastatic colorectal cancer who have formerly been treated with FOLFIRI and afterwards progressed. The first part of the study was a dose-finding study, where the impact of SCO-101 on the pharmacokinetics (PK) of SN-38 was studied.
12 patients from the dose-finding part of the study received 150 mg SCO-101 for 6 days and […] of the recommended dose of FOLFIRI. 6 of the patients had RAS wildtype tumors and these patients were subjected to further analysis.
Blood for pharmacokinetic analysis was sampled from the patients were taken at 1, 2, 4, 8, 24, 48, and 96 hours after treatment with FOLFIRI and SCO-101.

A short description of data set [2]: SN-38 and irinotecan PK in patients with 100 or 150 mg SCO-101 and FOLFIRI versus literature (Example 7). The following applies: for AUC Mean (SD) / Cmax Mean (SD): Irinotecan (FOLFIRI) Norm 125 mg/m2, add-on 150 mg SCO-101 (n = 10).
The conditions of data set [3]: FIG. 1A, cited from earlier work.
For data set [4] the following is noted: Irinotecan (Camptosar) Norm 125 mg/m2, NO SCO-101 (n = 99), literature value; cited from earlier work.
In data set [5] the target is T1, BCRP (Homo sapiens, UniProt Q9UNQ0).
T1 construct: endogenous in cells; host or cells: HT29 parental and HT29 SN38-resistant colorectal cancer cells
T1 sequence (Q9UNQ0 1-655): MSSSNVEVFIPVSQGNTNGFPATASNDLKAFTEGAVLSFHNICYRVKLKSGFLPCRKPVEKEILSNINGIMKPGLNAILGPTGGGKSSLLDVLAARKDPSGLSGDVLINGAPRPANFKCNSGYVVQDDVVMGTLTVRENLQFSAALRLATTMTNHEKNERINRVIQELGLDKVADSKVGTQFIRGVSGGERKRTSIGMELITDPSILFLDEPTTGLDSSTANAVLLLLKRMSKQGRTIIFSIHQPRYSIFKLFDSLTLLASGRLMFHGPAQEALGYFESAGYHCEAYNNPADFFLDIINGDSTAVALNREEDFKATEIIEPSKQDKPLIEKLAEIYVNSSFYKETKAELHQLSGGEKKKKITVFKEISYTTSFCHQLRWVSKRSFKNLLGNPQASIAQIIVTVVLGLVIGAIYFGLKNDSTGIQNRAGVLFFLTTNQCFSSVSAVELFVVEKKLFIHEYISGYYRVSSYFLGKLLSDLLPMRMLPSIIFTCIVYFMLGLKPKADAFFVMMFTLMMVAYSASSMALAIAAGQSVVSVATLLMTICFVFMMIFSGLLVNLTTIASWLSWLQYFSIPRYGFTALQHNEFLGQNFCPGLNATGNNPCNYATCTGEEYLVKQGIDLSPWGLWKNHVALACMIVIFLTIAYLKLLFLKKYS
Description: 3H-SN-38 uptake in HT29 parental cell monolayers (Example 6). Type of data set: cell-based. Particulars: 25 μM test compound; HT29 parental; ANOVA α=0.05. As to the method:
(§1) All treatments were investigated in three technical replicates (N=3). On the day of experimentation, the culture media was exchanged with 100 μL transport buffer (HBSS, 0.05% BSA, 10 mM HEPES, pH 7.4) and cells were incubated for 15 minutes at 37° C.
(§2) Subsequently, the blank transport buffer was exchanged with 50 μL transport buffer containing the different compounds (in 2x of the final concentration) to be tested and incubated for 15 minutes at 37° C. The uptake experiment was started by adding 50 μL of ^3H-SN38 at a concentration of 2 μCi/mL to all wells (the resulting concentration of ^3H-SN38 during the experiment was 1 μCi/mL). The uptake experiment was stopped after 15 minutes of incubation at 37° C. by removing the transport buffer from all wells.
(§3) The cell monolayers were subsequently washed twice by adding/removing ice-cold transport buffer twice and finally the cell monolayers were lysed by incubation in 100 μl of 0.1% TritonX-100 for 15 minutes at ambient temperature. Cell lysates were transferred to scintillation vials containing 2 mL of scintillation fluid (Ultima Gold, PerkinElmer). Each well was washed with 2×100 μL purified water (milliQ), which was also transferred to respective scintillation vials.

Data set [6] has as its target T1, BCRP. The experiment in a line: 3H-SN-38 uptake in HT29 SN-38 resistant cell monolayers (Example 6). Type of data set: cell-based. Particulars: 25 μM test compound, HT29 SN-38 resistant, ANOVA α=0.05. The method, then:
as §1, §2, §3

The mark [7] stands for this setting: SN-38, 90 mg/m2 irinotecan + SCO-101 vs 180 mg/m2 standard.

Entries after “also recorded” stand apart in the source; their conditions may differ. Like-named read-outs stand apart in the source and are kept apart here.

Turning to `CCc1c2c(nc3ccc(O)cc13)-c1cc3c(c(=O)n1C2)COC(=O)[C@]3(O)CC` [SN-38], in data set [1] (setting [7]), the “Fold increase (study vs Standard) of AUC_0-24” value is 3.7, the “Fold increase (study vs Standard) of Cmax” value is 1.5 and the “Fold increase (study vs Standard) of T½” value is recorded as 1.6. In addition, the half-life in data set [1] (human, plasma, intravenous, SN-38 study: 150 mg SCO-101 + FOLFIRI, normalized to irinotecan 90 mg/m2, day 5, read-out: T½ hours (SD) (converted)) was 1140 min. For the same compound, the AUC(0-t) in data set [1] (human, plasma, intravenous, SN-38 study: 150 mg SCO-101 + FOLFIRI, normalized to irinotecan 90 mg/m2, read-out: AUC_0-24 h*ng/ml (SD)) came to 1420 ng·h/mL. For the same compound, in data set [2] (100 mg SCO-101), the “Fold increase in AUC of SN-38 vs 125 mg/m2 irinotecan administered alone” value is listed as “approximately 5 fold”. The “Fold increase in AUC of SN-38 vs 125 mg/m2 irinotecan administered alone” value in data set [2] (150 mg SCO-101) was ~8 fold. Moreover, in data set [2], the “AUC Mean (SD)” value was found to be 2088 ng·h/mL and the “Cmax Mean (SD)” value was found to be 86 ng/mL. The “SN-38 plasma Cmax” value in data set [3] (conventional irinotecan regime 180 mg/m^2, no SCO-101, public reference data) was “about 25 ng/ml”. Besides, in data set [3] (conventional irinotecan regime 180 mg/m^2), the “Time after which SN-38 plasma concentration becomes therapeutically ineffective” value is listed as “about 24 hours”. Moreover, in data set [4], the “AUC Mean (SD)” value is 267 ng·h/mL and the “Cmax Mean (SD)” value was 27.8 ng/mL.

For `Cc1cc(Nc2cc(N)ncn2)c(=O)n2c1C(=O)NC21CCCCC1` [Tomivorsetib], the entries for the “Uptake of SN-38 relative to blank HBSS transport buffer control” value on BCRP [5] and on BCRP [6] were “significant increase” and “significantly increased; also recorded: significant increase”, respectively.

For the compound `CCc1c2c(nc3ccc(OC(=O)N4CCC(N5CCCCC5)CC4)cc13)-c1cc3c(c(=O)n1C2)COC(=O)[C@]3(O)CC` [Irinotecan], in data set [2], the “AUC Mean (SD)” value is 12565 ng·h/mL and the “Cmax Mean (SD)” value was 1457 ng/mL. Further, in data set [4], the “AUC Mean (SD)” value is 10529 ng·h/mL and the “Cmax Mean (SD)” value is 1492 ng/mL.

Consider `Nc1ncnc2n[nH]c(Nc3ccc(F)cc3)c12` [CGP57380], for which the results for the “Uptake of SN-38 relative to blank HBSS transport buffer control” value at BCRP [5] and at BCRP [6] (listed as CGP5738) were “significant increase” and “not different”, respectively.

For the compound `O=C(Nc1cc(C(F)(F)F)ccc1N1CCCCC1)c1ccncc1` [Srpin340], the entries for the “Uptake of SN-38 relative to blank HBSS transport buffer control” value at BCRP [5] and at BCRP [6] were “significant increase” and “significantly increased; also recorded: significant increase”, respectively.

The values above are taken from patent US20250262188A1, “Methods of Increasing the Plasma Drug Exposure of Anticancer Agents” (Scandion Oncology A/S, priority 2021, published 2025).
